Data set [1] has as its target T1, CpAK mutant A380C (Corynebacterium glutamicum, UniProt P26512, A362C).
T1 construct: His-tag (pET-28a) (N); made in house; host or cells: E. coli BL21
Description: biochemical. To be noted: read-out: Relative activity (%). Also noted: species or system Corynebacterium pekinense. As to the method:
(§1) The reaction was performed through adding 20 μL purified enzyme and 20 μL substrate inhibitors (Lys, Thr, Met, Lys + Thr, Lys + Met, Thr + Met, and Lys + Thr + Met) at 0.2, 1, 5, and 10 mM. The reaction was finished by adding volume FeCl3 after 30 min and the absorbance was measured at 540 nm. Water was instead of the substrate inhibitor as blank control. The enzyme activity of blank control was defined as 100%.

Data set [2] addresses T2, CpAK mutant T379N/A380C (Corynebacterium glutamicum, UniProt P26512, A362C/T361N).
T2 construct: His-tag (pET-28a) (N); made in house; host or cells: E. coli BL21
Nature of the data set: biochemical. Set-up: species or system Corynebacterium pekinense. The note with it: read-out: Relative activity (%). Here is the method: as §1

The target of a further data set is WT (wild-type CpAK). Nature of the data set: Microscale thermophoresis (MST), WT. In kind it is binding, Corynebacterium pekinense. The note with it: 28 °C. As to the method: (§2) The purified AK concentration was adjusted to 2–20 μM with labeled buffer. The solid fluorescent dye (NT-647-NHS) was appended with 100% DMSO (30 μL) and dissolved thoroughly after vortex vibration. Then the dyes were adjusted to 2–3 folds of the protein concentration with the marker buffer. Protein and the solid fluorescent dye were mingled in equal proportion for dark reaction 30 min, and then purified according to the purification kit operation. The unlabeled substrate Asp and inhibitor Lys were diluted in the enzymatic activity measurement system, and the final concentration ranged from […], respectively, which they were incubated with the labeled protein (40 nM) at room temperature for 10 min. Then the samples were loaded into the Standard Capillaries from Nano Temper Technologies. Thermophoresis was measured 30 min after incubation at 28 °C on Monolith NT.115.[22] The dissociation constant (Kd) values were fitted by means of the MO. Affinity analysis software.
(In general: Microscale thermophoresis detects binding through changes in fluorescence in a small temperature gradient.)

In data set [3] the target is T1, CpAK mutant A380C. Nature of the data set: Microscale thermophoresis (MST), A380C. The class given is binding, Corynebacterium pekinense. Here is the method:
as §2

Data set [4] has as its target T2, CpAK mutant T379N/A380C. Description: Microscale thermophoresis (MST), T379N/A380C. In kind it is binding, Corynebacterium pekinense. As to the method:
as §2

In data set [5] the target is T3, WT (Corynebacterium glutamicum, UniProt P26512).
T3 construct: gene lysC; recombinant from pET-28a-AK, His Trap purified, about 48 kDa
T3 sequence (P26512 1-421): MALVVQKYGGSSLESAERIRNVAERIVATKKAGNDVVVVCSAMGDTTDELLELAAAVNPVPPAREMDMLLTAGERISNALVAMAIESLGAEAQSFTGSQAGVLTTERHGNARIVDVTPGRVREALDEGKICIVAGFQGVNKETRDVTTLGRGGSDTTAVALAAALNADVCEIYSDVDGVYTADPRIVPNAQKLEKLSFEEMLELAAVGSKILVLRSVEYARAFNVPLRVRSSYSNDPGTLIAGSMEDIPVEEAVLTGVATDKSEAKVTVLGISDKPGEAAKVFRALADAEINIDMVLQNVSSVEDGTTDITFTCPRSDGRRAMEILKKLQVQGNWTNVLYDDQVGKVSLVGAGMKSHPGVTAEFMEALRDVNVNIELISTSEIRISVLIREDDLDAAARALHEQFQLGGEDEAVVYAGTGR
Description: Microscale thermophoresis of NT-647-NHS-labelled AK (40 nM) with diluted Lys in the enzyme activity measurement system, 28 °C, Monolith NT.115. The class given is binding. To be noted: read-out: K d (mM) Lys. As to the method:
as §2

Data set [6] concerns the target T3, WT. Nature of the data set: Microscale thermophoresis of NT-647-NHS-labelled AK (40 nM) with diluted Asp in the enzyme activity measurement system, 28 °C, Monolith NT.115, no Lys added. The class given is binding. The note with it: read-out: K d (mM) Asp. As to the method:
as §2

Substrate in data set [7]: N[C@@H](CC(=O)O)C(=O)O
Description: Colorimetric end-point assay (FeCl3, 540 nm) with 0.5-16 mM L-Asp, 10.4 mM ATP, 1.6 mM MgSO4, 800 mM KCl, 800 mM NH4OH, 100 mM Tris-HCl pH 8.0, 28 °C, 30 min; fitted with the Hill equation. The class given is biochemical. As to the method: The reaction system (1 mL) contained at the final concentration: 1.6 mM MgSO4, 800 mM KCl, 0.5–16 mM L-Asp, 10.4 mM ATP (dissoluted by 25 mM Tris–HCl), 100 mM Tris–HCl buffer solution (pH 8.0), 10 mM β-mercaptoethanol, and 800 mM NH4OH. The water was instead of L-Asp as blank control. The reaction was generated by adding 50 μL purified enzyme at 28 °C for 30 min, and stopped by adding FeCl3 solution (three parallel, below the same) and the absorbance were determined at 540 nm. The nonlinear curve was fitted by the Hill equation (V = Vmax (S^n)/(K^n + S^n)) using Origin 8.5 software. In the equation, the n value represents the Hill coefficient; the K value is equal to the substrate concentration at half the maximum rate of enzymatic reaction; Vmax and V indicate the maximum velocity and reaction rate, respectively; S means the substrate concentration.

Consider `NCCCC[C@H](N)C(=O)O` [Lys, lysine], for which the activity at 200 µM turned out to be 94.8 ± 0.97% on CpAK mutant A380C [1] and 96.99 ± 0.56% at CpAK mutant T379N/A380C [2]. The activity at 1000 µM at CpAK mutant A380C [1] worked out at 95.7 ± 1.43%; on CpAK mutant T379N/A380C [2], 98.8 ± 4.95%. In addition, the activity at 5000 µM at CpAK mutant A380C [1] stood at 99.7 ± 0.54%; on CpAK mutant T379N/A380C [2], 106.9 ± 0.56%. Further, the activity at 10000 µM amounted to 104 ± 1.32% on CpAK mutant A380C [1] and 116 ± 1.81% at CpAK mutant T379N/A380C [2]. Further, the Kd at WT (wild-type CpAK) was determined as 1.32 mM; on CpAK mutant A380C [3] it was 5.32 ± 0.01 mM; at CpAK mutant T379N/A380C [4], 9.24 mM; on WT [5], 1.32 mM.

As for `N[C@@H](CC(=O)O)C(=O)O` [Asp, L-aspartic acid (L-Asp)], the Kd on WT [6] is 655.1 ± 0.9 mM.

With `CSCC[C@H](N)C(=O)O` [Met, methionine], at CpAK mutant A380C [1], the activity at 200 µM amounted to 95.1 ± 1.69%, the activity at 1000 µM was found to be 97.71 ± 0.85%, the activity at 5000 µM was 98.3 ± 2.6% and the activity at 10000 µM is 98.1 ± 1.89%. On CpAK mutant T379N/A380C [2], the activity at 200 µM was 90.47 ± 0.12%, the activity at 1000 µM turned out to be 96.33 ± 0.56%, the activity at 5000 µM stood at 98.12 ± 0.44% and the activity at 10000 µM worked out at 99.47 ± 0.53%.

Turning to `C[C@@H](O)[C@H](N)C(=O)O` [Thr, threonine], on CpAK mutant A380C [1], the activity at 200 µM was found to be 78.3 ± 1.19%, the activity at 1000 µM was determined as 80.9 ± 3.06%, the activity at 5000 µM is 82.1 ± 3.56% and the activity at 10000 µM was found to be 87.8 ± 3.53%. Besides, on CpAK mutant T379N/A380C [2], the activity at 200 µM was found to be 94.6 ± 3.26%, the activity at 1000 µM worked out at 97.06 ± 0.68%, the activity at 5000 µM came to 97.8 ± 1.95% and the activity at 10000 µM was 98.12 ± 0.44%.

B1: WT (Corynebacterium glutamicum ATCC 13032) (protein)
chain: MALVVQKYGGSSLESAERIRNVAERIVATKKAGNDVVVVCSAMGDTTDELLELAAAVNPVPPAREMDMLLTAGERISNALVAMAIESLGAEAQSFTGSQAGVLTTERHGNARIVDVTPGRVREALDEGKICIVAGFQGVNKETRDVTTLGRGGSDTTAVALAAALNADVCEIYSDVDGVYTADPRIVPNAQKLEKLSFEEMLELAAVGSKILVLRSVEYARAFNVPLRVRSSYSNDPGTLIAGSMEDIPVEEAVLTGVATDKSEAKVTVLGISDKPGEAAKVFRALADAEINIDMVLQNVSSVEDGTTDITFTCPRSDGRRAMEILKKLQVQGNWTNVLYDDQVGKVSLVGAGMKSHPGVTAEFMEALRDVNVNIELISTSEIRISVLIREDDLDAAARALHEQFQLGGEDEAVVYAGTGR
notes: recombinant from pET-28a-AK, His Trap purified, about 48 kDa
The Km is the concentration of substrate that gives half-maximal velocity. Regarding B1, the Km in data set [7] is listed as 4.17 mM.

B2: A380C (Corynebacterium glutamicum ATCC 13032; A362C) (protein)
chain: MALVVQKYGGSSLESAERIRNVAERIVATKKAGNDVVVVCSAMGDTTDELLELAAAVNPVPPAREMDMLLTAGERISNALVAMAIESLGAEAQSFTGSQAGVLTTERHGNARIVDVTPGRVREALDEGKICIVAGFQGVNKETRDVTTLGRGGSDTTAVALAAALNADVCEIYSDVDGVYTADPRIVPNAQKLEKLSFEEMLELAAVGSKILVLRSVEYARAFNVPLRVRSSYSNDPGTLIAGSMEDIPVEEAVLTGVATDKSEAKVTVLGISDKPGEAAKVFRALADAEINIDMVLQNVSSVEDGTTDITFTCPRSDGRRAMEILKKLQVQGNWTNVLYDDQVGKVSLVGAGMKSHPGVTCEFMEALRDVNVNIELISTSEIRISVLIREDDLDAAARALHEQFQLGGEDEAVVYAGTGR
notes: recombinant from pET-28a-AK in E. coli BL21, His Trap purified, about 48 kDa
Consider B2, for which the Km in data set [7] was 3.57 mM.

B3: T379N/A380C (Corynebacterium glutamicum ATCC 13032; A362C/T361N) (protein)
chain: MALVVQKYGGSSLESAERIRNVAERIVATKKAGNDVVVVCSAMGDTTDELLELAAAVNPVPPAREMDMLLTAGERISNALVAMAIESLGAEAQSFTGSQAGVLTTERHGNARIVDVTPGRVREALDEGKICIVAGFQGVNKETRDVTTLGRGGSDTTAVALAAALNADVCEIYSDVDGVYTADPRIVPNAQKLEKLSFEEMLELAAVGSKILVLRSVEYARAFNVPLRVRSSYSNDPGTLIAGSMEDIPVEEAVLTGVATDKSEAKVTVLGISDKPGEAAKVFRALADAEINIDMVLQNVSSVEDGTTDITFTCPRSDGRRAMEILKKLQVQGNWTNVLYDDQVGKVSLVGAGMKSHPGVNCEFMEALRDVNVNIELISTSEIRISVLIREDDLDAAARALHEQFQLGGEDEAVVYAGTGR
notes: as for B2
Consider B3, for which the Km in data set [7] turned out to be 2.89 mM.
